Results taken from patent US20230348401A1, “Inhibitors of Glucose-6-phosphate Dehydrogenase and Uses Thereof” (The Trustees of Princeton University, priority 2020, published 2023).

Key:
G6PD [1] = biological target: T1, G6PD (Homo sapiens, UniProt P11413); assay: 6-pg levels in HepG2 cells (cellular target engagement); format: cell-based; parameters: endogenous in cells; conditions: for dose-dependent decrease in 6-pg levels: dose-response
Source text: Direct Monitoring of 6-pg in cells. The metabolite 6-phosphogluconate (6-pg) is a downstream product of the G6PD reaction, and is believed to be made predominantly by the oxidative pentose phosphate pathway in mammalian cells. Though the direct product of G6PD is the lactone form of 6-pg (6-phosphogluconolactone), this product is believed to readily hydrolyze to 6-pg under cellular conditions, and is therefore difficult to detect. Thus, to directly monitor the G6PD reaction, methods for measuring 6-pg levels in intact cells were developed.
To explore this possibility further, more specific assays for evaluating G6PD cellular target engagement were developed. […] These included the hepatocellular carcinoma line, HepG2, which was selected as the primary cell for direct 6-pg monitoring. Consistent with the oxPPP being the primary source of 6-pg in these cells, G6PD knockout led to nearly complete 6-pg loss (FIGS. 1B and 1C).
(§1) For analysis of intracellular metabolites by LC-MS, adherent cell lines were plated and grown to 80% confluency in 6-well plates. At the start of an experiment, the appropriate media was added to cells, which included isotope tracers and/or chemical inhibitors as described. Cells were incubated at 37° C. at 5% CO2 for 2 hours (unless otherwise noted). For all experiments involving small molecule agents, DMSO concentrations were <0.2%. After 2 hours, media was removed by aspiration and metabolome extraction was performed (without any wash steps) by the addition of 800 µL of ice cold solvent (40:40:20 acetonitrile:methanol:water + 0.5% formic acid). After a 1-minute incubation on ice, the extract was neutralized by the addition of NH4HCO3 (15% w/v). The samples were incubated at -20° C. for approximately 30 minutes, at which point the wells were scraped and the extract transferred to Eppendorf tubes and centrifuged (15 minutes, 16000 rpm, 4° C.). The resulting supernatant was frozen on dry ice and kept at -80° C. until LC-MS analysis.
Metabolites were analyzed using a quadrupole-orbitrap mass spectrometer (Q Exactive Plus, Thermo Fisher Scientific, Waltham, MA), coupled to hydrophilic interaction chromatography (HILIC) with LC separation on a XBridge BEH Amide column (Waters), or a stand-alone orbitrap (Thermo-Fisher Exactive) coupled to reversed-phase ion-pairing chromatography with LC separation on a HSS-T3 column (Waters). Both mass spectrometers were operating in negative ion mode and were coupled to their respective liquid chromatography methods via electrospray-ionization. Detailed analytical conditions have been previously described.
Target sequence in this assay (P11413 whole entry): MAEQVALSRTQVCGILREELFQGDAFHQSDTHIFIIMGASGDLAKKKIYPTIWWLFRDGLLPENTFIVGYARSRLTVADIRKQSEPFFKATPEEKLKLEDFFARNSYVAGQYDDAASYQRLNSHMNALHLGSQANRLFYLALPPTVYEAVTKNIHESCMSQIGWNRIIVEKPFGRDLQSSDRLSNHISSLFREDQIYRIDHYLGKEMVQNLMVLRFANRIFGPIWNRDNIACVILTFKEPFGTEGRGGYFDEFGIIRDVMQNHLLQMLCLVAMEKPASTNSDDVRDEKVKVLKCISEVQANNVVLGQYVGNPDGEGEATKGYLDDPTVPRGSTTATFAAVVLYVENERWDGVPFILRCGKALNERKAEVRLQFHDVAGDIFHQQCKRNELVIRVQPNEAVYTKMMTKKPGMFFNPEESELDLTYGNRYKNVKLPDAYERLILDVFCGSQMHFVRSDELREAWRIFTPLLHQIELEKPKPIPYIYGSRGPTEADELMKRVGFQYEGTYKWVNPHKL

G6PD [2] = biological target: T1, G6PD; assay: 2H transfer from 1-2H-glucose to NADPH active hydride and C16:0 in HCT116 cells; format: cell-based; parameters: endogenous in cells; host or cells: HCT116; conditions: for dose-dependent decrease in 2H transfer from 1-2H-glucose to NADPH's active hydride: HCT116 cells, dose-response
Source text: Direct Monitoring of NADPH Produced by the G6PD Reaction. […] NADPH production is compartmentalized, and occurs through reduction of its redox partner NADP^+. G6PD is one of the main enzymes that generates NADPH, and catalyzes the transfer of electrons (in the form of hydride) from glucose-6-phosphate to NADP^+. By installing a deuterium at the “one” position of glucose (1-^2H-glucose), the transfer of that deuterium to the active hydride of NADPH via glucose-6-phosphate can be specifically monitored. Also, a major use of cytosolic NADPH is fat synthesis. Transfer of ^2H from glucose via NADPH into free palmitate (C16:0) requires two NADPH per two-carbon unit addition during its synthesis.
Next, G6PD mediated hydride transfer to NADPH was directly monitored. Specifically, transfer of deuterium from 1-^2H-glucose, via glucose-6-phosphate, to the NADPH’s active hydride was monitored (FIG. 1B). […] The impacted step was G6PD, as no change in substrate (G6P) labeling was observed (FIG. 1E). A major use of cytosolic NADPH is fat synthesis. Transfer of ^2H from glucose via NADPH into palmitate (C16:0), which requires two NADPH per 2-carbon unit addition during its synthesis, was quantified (FIG. 1B).
For all experiments involving stable isotope tracers (e.g., 1-^2H-glucose), the isotope tracer nutrient was substituted for unlabeled nutrient at the same concentration normally found in the base media for a given cell type (e.g., DMEM for HCT116, RPMI for T cells, etc.). In addition, dialyzed FBS was used as a supplement in place of FBS.
Cytosolic NADPH sources were traced, and redox active hydride labeling was calculated, using a previously described strategy. 1-^2H-glucose (which directly traces G6PD) or 3-^2H-glucose (which directly traces PGD) were used for tracing oxPPP contribution to NADPH; 4-^2H-glucose for ME1; [2,3,3,4,4-^2H5]-glutamine, for both ME1 and IDH1; and D2O, to account for solvent exchange.
as §1
Target sequence in this assay (P11413 whole entry): as above

G6PD [3] = biological target: T1, G6PD; assay: G6PD enzymatic activity by LC-MS (6-pg production); format: biochemical; parameters: Partially truncated human G6PD (residues 28-515, Uniprot ID P11413); His6 with thrombin cleavage site (N, cleaved yes); made in house; host or cells: Escherichia coli BL21(DE3)pLysS; conditions: orthogonal LC-MS assay
Method: Aliquots of reaction mixture were collected at indicated time points and rapidly quenched by diluting (1:5) into methanol precooled on dry ice. The mixtures were centrifuged at 13,000 rcf for 20 minutes at 4° C., and the resulting supernatants were diluted (1:20) into 40:40:20 methanol/ acetonitrile/ water and analyzed by LC-MS.
Target sequence in this assay (P11413 28-515): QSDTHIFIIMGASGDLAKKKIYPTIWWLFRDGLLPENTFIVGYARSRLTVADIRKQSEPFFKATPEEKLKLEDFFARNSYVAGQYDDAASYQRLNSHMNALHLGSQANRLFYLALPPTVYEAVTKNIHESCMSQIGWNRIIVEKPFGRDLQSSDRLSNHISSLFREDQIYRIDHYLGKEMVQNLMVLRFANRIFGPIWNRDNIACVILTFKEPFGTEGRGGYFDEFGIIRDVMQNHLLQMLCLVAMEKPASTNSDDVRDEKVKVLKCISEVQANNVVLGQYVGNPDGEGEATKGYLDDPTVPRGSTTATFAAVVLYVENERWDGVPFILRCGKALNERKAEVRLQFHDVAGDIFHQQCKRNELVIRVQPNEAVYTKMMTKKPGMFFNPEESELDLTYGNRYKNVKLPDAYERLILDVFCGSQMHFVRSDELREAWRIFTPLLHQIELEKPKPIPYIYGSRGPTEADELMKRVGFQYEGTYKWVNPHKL

G6PD [4] = biological target: T1, G6PD; assay: G6PD enzymatic activity by diaphorase-coupled assay
Target sequence in this assay (P11413 28-515): as above

G6PD [5] = biological target: T1, G6PD; assay: Cellular thermal shift assay (CETSA) in HepG2 lysates; format: binding; parameters: endogenous in cells; conditions: up to 56° C.
Method: Lysates from HepG2 cells at 75% confluence were isolated with 0.5% Triton in TBS (20 mM, Tris pH 7.4, 150 mM NaCl) for 30 min on ice, pre-cleared by centrifugation and used for thermal shift assay as described 49. Briefly, inhibitor or DMSO control was added to lysates at indicated concentration and incubated for 30 min on ice followed by 3 min heating at 47° C., 50° C., 53° C., and 56° C. in a thermal cycler. After heating, tubes were cooled at room temperature for 3 min and insoluble fraction removed by centrifugation at 17,000 g for 20 min. The soluble fraction was separated by SDS-PAGE, transferred to PVDF membrane, and immunoblotted using indicated antibodies at a dilution of 1:2000. Blots were developed by chemiluminescence and imaged using LI-COR C-DiGit Western Blot Scanner. Two independent experiments were performed. Signal intensity of proteins from immunoblots was quantified using Image Studio version 5.2 for C-DiGit Scanner, and bands were normalized to signal intensity of the 47° C. treated samples. Relative signal intensities were plotted as bar graph relative to the DMSO treated control.
Target sequence in this assay (P11413 whole entry): as the sequence (P11413 whole entry) above

SMILES	6-pg levels (G6PD [1]; 50 µM, 2 hours)	NADPH active hydride labeling (G6PD [2]; 50 µM, 2 hours)	6-pg production by recombinant human G6PD (G6PD [3])	activity against G6PD (G6PD [4]; in vitro)	dose-dependent decrease in 6-pg levels (G6PD [1]; HepG2 cells)	dose-dependent decrease in 2H transfer from 1-2H-glucose to NADPH's active hydride (G6PD [2])	IC50 (G6PD [4]; IC50 (half-maximal inhibitory constant) against human G6PD, coupled enzymatic assay, recombinant human enzyme)	6-pg level (G6PD [1]; HepG2 cells, 100 µM, 2 hours)	thermal stabilization of G6PD (G6PD [5])	C16:0 labeling (G6PD [2]; 100 µM, 2 hours)	NADPH active hydride labeling (G6PD [2]; 100 µM, 2 hours)
OC[C@H]1O[C@@H](Oc2cc(O)cc(/C=C/c3ccc(O)cc3)c2)[C@H](O)[C@@H](O)[C@@H]1O [polydatin]	failed to decrease	failed to decrease									
CN(c1cccc(C#N)c1)c1ncc2c(n1)CCCC2=O [neg-ctrl, 3-[methyl(5-oxo-5,6,7,8-tetrahydroquinazolin-2-yl)amino]benzonitrile]			did not	lacked any activity against G6PD	not	not					
C[C@]12CC[C@H](O)CC1=CC[C@@H]1[C@@H]2CC[C@]2(C)C(=O)CC[C@@H]12 [DHEA, dehydroepiandrosterone]					not	not	~9.5 µM	did not impact the 6-pg level	not	did not decrease	did not decrease
